Measurements: PubChem BioAssay AID1963958 (Molecular Pharmacology Branch, DTP, NCI, 2024)
pIC50: −log10 of the molar value.

Tested on: MDA-MB-231 multicell spheroids, viability
Assay: Anticancer human tumor MDA-MB-231 cell line growth inhibition [PI3K];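 also: spheroids exposed to agents for seven days before reading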;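 as to viability, T/C: percent of vehicle control luminescence with DMSO treated spheroids as 100%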
Conditions: for pIC50: curve of first compound; for viability, T/C: stronger effect = lower value; active = viability on the fitted dose curve at most 10% of control; inactive = the rest
Summary of the method: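 Spheroid viability read-out. Co-cultures contained the tumor line plus HUVEC and human MSCs. Each agent was paired with a PI3K inhibitor (inavolisib, alpelisib, duvelisib, copanlisib) across half-log dilutions starting at clinical Cmax, or at 10 microM when Cmax was unknown.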

[1] = second compound 0.0316 µM, first compound 0.000316 µM
[2] = second compound 0.0316 µM, first compound 0.001 µM
[3] = second compound 0.0316 µM, first compound 0.00316 µM
[4] = second compound 0.0316 µM, first compound 0.01 µM
[5] = second compound 0.0316 µM, first compound 0.0316 µM
[6] = second compound 0.0316 µM, first compound 0.1 µM
[7] = second compound 0.1 µM, first compound 0.000316 µM
[8] = second compound 0.1 µM, first compound 0.001 µM
[9] = second compound 0.1 µM, first compound 0.00316 µM
[10] = second compound 0.1 µM, first compound 0.01 µM
[11] = second compound 0.1 µM, first compound 0.0316 µM
[12] = second compound 0.1 µM, first compound 0.1 µM
[13] = second compound 0.316 µM, first compound 0.000316 µM
[14] = second compound 0.316 µM, first compound 0.001 µM
[15] = second compound 0.316 µM, first compound 0.00316 µM
[16] = second compound 0.316 µM, first compound 0.01 µM
[17] = second compound 0.316 µM, first compound 0.0316 µM
[18] = second compound 0.316 µM, first compound 0.1 µM
[19] = second compound 1 µM, first compound 0.000316 µM
[20] = second compound 1 µM, first compound 0.001 µM
[21] = second compound 1 µM, first compound 0.00316 µM
[22] = second compound 1 µM, first compound 0.01 µM
[23] = second compound 1 µM, first compound 0.0316 µM
[24] = second compound 1 µM, first compound 0.1 µM
[25] = second compound 3.16 µM, first compound 0.000316 µM
[26] = second compound 3.16 µM, first compound 0.001 µM
[27] = second compound 3.16 µM, first compound 0.00316 µM
[28] = second compound 3.16 µM, first compound 0.01 µM
[29] = second compound 3.16 µM, first compound 0.0316 µM
[30] = second compound 3.16 µM, first compound 0.1 µM
[31] = second compound 10 µM, first compound 0.000316 µM
[32] = second compound 10 µM, first compound 0.001 µM
[33] = second compound 10 µM, first compound 0.00316 µM
[34] = second compound 10 µM, first compound 0.01 µM
[35] = second compound 10 µM, first compound 0.0316 µM
[36] = second compound 10 µM, first compound 0.1 µM
[37] = second compound 0.0316 µM, first compound 0.316 µM
[38] = second compound 0.0316 µM, first compound 1 µM
[39] = second compound 0.0316 µM, first compound 3.16 µM
[40] = second compound 0.0316 µM, first compound 10 µM
[41] = second compound 0.1 µM, first compound 0.316 µM
[42] = second compound 0.1 µM, first compound 1 µM
[43] = second compound 0.1 µM, first compound 3.16 µM
[44] = second compound 0.1 µM, first compound 10 µM
[45] = second compound 0.316 µM, first compound 0.316 µM
[46] = second compound 0.316 µM, first compound 1 µM
[47] = second compound 0.316 µM, first compound 3.16 µM
[48] = second compound 0.316 µM, first compound 10 µM
[49] = second compound 1 µM, first compound 0.316 µM
[50] = second compound 1 µM, first compound 1 µM
[51] = second compound 1 µM, first compound 3.16 µM
[52] = second compound 1 µM, first compound 10 µM
[53] = second compound 3.16 µM, first compound 0.316 µM
[54] = second compound 3.16 µM, first compound 1 µM
[55] = second compound 3.16 µM, first compound 3.16 µM
[56] = second compound 3.16 µM, first compound 10 µM
[57] = second compound 10 µM, first compound 0.316 µM
[58] = second compound 10 µM, first compound 1 µM
[59] = second compound 10 µM, first compound 3.16 µM
[60] = second compound 10 µM, first compound 10 µM

CC(=O)c1c(C)c2cnc(Nc3ccc(N4CCNCC4)cn3)nc2n(C2CCCC2)c1=O + Cc1nc(NC(=O)N2CCCC2C(N)=O)sc1-c1ccnc(C(C)(C)C(F)(F)F)c1
inactive: viability, T/C [1] 98.2% | viability, T/C [2] 87.3% | viability, T/C [3] 92.4% | viability, T/C [4] 82.7% | viability, T/C [5] 66.3% | viability, T/C [6] 42.5% | viability, T/C [7] 79.2% | viability, T/C [8] 85.5% | viability, T/C [9] 81.4% | viability, T/C [10] 73.4% | viability, T/C [11] 59.7% | viability, T/C [12] 37.8% | viability, T/C [13] 73.8% | viability, T/C [14] 72.8% | viability, T/C [15] 71.8% | viability, T/C [16] 60.9% | viability, T/C [17] 48.8% | viability, T/C [18] 34% | viability, T/C [19] 70.5% | viability, T/C [20] 64.9% | viability, T/C [21] 63% | viability, T/C [22] 59% | viability, T/C [23] 46% | viability, T/C [24] 29.6% | viability, T/C [25] 67.2% | viability, T/C [26] 66.6% | viability, T/C [27] 61.1% | viability, T/C [28] 56.3% | viability, T/C [29] 44.8% | viability, T/C [30] 33.2% | viability, T/C [31] 64% | viability, T/C [32] 60.9% | viability, T/C [33] 58.4% | viability, T/C [34] 52.4% | viability, T/C [35] 45.1% | viability, T/C [36] 31%
7.28: pIC50 (second compound 0.1 µM)
7.72: pIC50 (second compound 3.16 µM)
7.82: pIC50 (second compound 10 µM)
7.16: pIC50 (second compound 0.0316 µM)
7.66: pIC50 (second compound 1 µM)
7.56: pIC50 (second compound 0.316 µM)

CC(C)n1nc(-c2ccc3oc(N)nc3c2)c2c(N)ncnc21 + Cc1nc(NC(=O)N2CCCC2C(N)=O)sc1-c1ccnc(C(C)(C)C(F)(F)F)c1
8.50: pIC50 (second compound 10 µM)
7.60: pIC50 (second compound 0.1 µM)
7.96: pIC50 (second compound 0.316 µM)
inactive: viability, T/C [1] 94% | viability, T/C [2] 85.8% | viability, T/C [3] 80.9% | viability, T/C [4] 69.3% | viability, T/C [5] 55.3% | viability, T/C [6] 35.2% | viability, T/C [7] 85.7% | viability, T/C [8] 85.7% | viability, T/C [9] 71.2% | viability, T/C [10] 65.2% | viability, T/C [11] 45.9% | viability, T/C [12] 31.3% | viability, T/C [13] 73% | viability, T/C [14] 72% | viability, T/C [15] 60.2% | viability, T/C [16] 50.6% | viability, T/C [17] 39.6% | viability, T/C [18] 27.7% | viability, T/C [19] 68.3% | viability, T/C [20] 58% | viability, T/C [21] 55.5% | viability, T/C [22] 49.1% | viability, T/C [23] 35% | viability, T/C [24] 23.6% | viability, T/C [25] 66.4% | viability, T/C [26] 63.2% | viability, T/C [27] 54.1% | viability, T/C [28] 41.4% | viability, T/C [29] 34.8% | viability, T/C [30] 25.3% | viability, T/C [31] 62.3% | viability, T/C [32] 56% | viability, T/C [33] 50.4% | viability, T/C [34] 43.9% | viability, T/C [35] 33.8% | viability, T/C [36] 28.5%
7.37: pIC50 (second compound 0.0316 µM)
8.20: pIC50 (second compound 1 µM)
8.32: pIC50 (second compound 3.16 µM)

CC1(C)CCC(CN2CCN(c3ccc(C(=O)NS(=O)(=O)c4ccc(NCC5CCOCC5)c([N+](=O)[O-])c4)c(Oc4cnc5[nH]ccc5c4)c3)CC2)=C(c2ccc(Cl)cc2)C1 + Cc1nc(NC(=O)N2CCCC2C(N)=O)sc1-c1ccnc(C(C)(C)C(F)(F)F)c1
5.36: pIC50 (second compound 3.16 µM)
5.22: pIC50 (second compound 0.1 µM)
5.31: pIC50 (second compound 1 µM)
5.21: pIC50 (second compound 0.0316 µM)
inactive: viability, T/C [5] 93.7% | viability, T/C [6] 101% | viability, T/C [37] 96% | viability, T/C [38] 101% | viability, T/C [39] 107% | viability, T/C [40] 14.4% | viability, T/C [11] 89.2% | viability, T/C [12] 90.3% | viability, T/C [41] 87.7% | viability, T/C [42] 90.8% | viability, T/C [43] 97% | viability, T/C [44] 16.8% | viability, T/C [17] 77.9% | viability, T/C [18] 79.6% | viability, T/C [45] 79.2% | viability, T/C [46] 79.6% | viability, T/C [47] 83.5% | viability, T/C [48] 22.9% | viability, T/C [23] 72.5% | viability, T/C [24] 73.4% | viability, T/C [49] 71.7% | viability, T/C [50] 73.4% | viability, T/C [51] 74% | viability, T/C [52] 13.1% | viability, T/C [29] 69.8% | viability, T/C [30] 65.9% | viability, T/C [53] 67.7% | viability, T/C [54] 72.7% | viability, T/C [55] 66% | viability, T/C [35] 65.8% | viability, T/C [36] 67.4% | viability, T/C [57] 58.5% | viability, T/C [58] 63.1% | viability, T/C [59] 62% | viability, T/C [60] 16.7%
5.37: pIC50 (second compound 10 µM)
active: viability, T/C [56] 8.11%
5.24: pIC50 (second compound 0.316 µM)

CCCS(=O)(=O)Nc1ccc(F)c(C(=O)c2c[nH]c3ncc(-c4ccc(Cl)cc4)cc23)c1F + Cc1nc(NC(=O)N2CCCC2C(N)=O)sc1-c1ccnc(C(C)(C)C(F)(F)F)c1
6.44: pIC50 (second compound 10 µM)
5.93: pIC50 (second compound 3.16 µM)
5.60: pIC50 (second compound 0.316 µM)
5.81: pIC50 (second compound 1 µM)
5.33: pIC50 (second compound 0.0316 µM)
5.45: pIC50 (second compound 0.1 µM)
inactive: viability, T/C [5] 102% | viability, T/C [6] 102% | viability, T/C [37] 85.5% | viability, T/C [38] 80% | viability, T/C [39] 59.4% | viability, T/C [40] 31.7% | viability, T/C [11] 90.6% | viability, T/C [12] 96.6% | viability, T/C [41] 83.6% | viability, T/C [42] 74.1% | viability, T/C [43] 51.6% | viability, T/C [44] 32.6% | viability, T/C [17] 80.4% | viability, T/C [18] 80.8% | viability, T/C [45] 72.7% | viability, T/C [46] 67.2% | viability, T/C [47] 45.3% | viability, T/C [48] 31.4% | viability, T/C [23] 72.3% | viability, T/C [24] 66.6% | viability, T/C [49] 64.8% | viability, T/C [50] 57.5% | viability, T/C [51] 38.9% | viability, T/C [52] 29% | viability, T/C [29] 68.8% | viability, T/C [30] 64.8% | viability, T/C [53] 62.3% | viability, T/C [54] 51.2% | viability, T/C [55] 38.8% | viability, T/C [56] 25.9% | viability, T/C [35] 61.1% | viability, T/C [36] 56% | viability, T/C [57] 50.3% | viability, T/C [58] 43% | viability, T/C [59] 36.8% | viability, T/C [60] 22.3%

CNC(=O)c1ccc(N2C(=S)N(c3ccc(C#N)c(C(F)(F)F)c3)C(=O)C2(C)C)cc1F + Cc1nc(NC(=O)N2CCCC2C(N)=O)sc1-c1ccnc(C(C)(C)C(F)(F)F)c1
< 5.00: pIC50 (second compound 0.0316 µM) | pIC50 (second compound 0.1 µM) | pIC50 (second compound 0.316 µM) | pIC50 (second compound 1 µM) | pIC50 (second compound 3.16 µM) | pIC50 (second compound 10 µM)
inactive: viability, T/C [5] 100% | viability, T/C [6] 94% | viability, T/C [37] 93.3% | viability, T/C [38] 95.7% | viability, T/C [39] 93.8% | viability, T/C [40] 77.2% | viability, T/C [11] 86.1% | viability, T/C [12] 88.3% | viability, T/C [41] 89.9% | viability, T/C [42] 85.6% | viability, T/C [43] 76.5% | viability, T/C [44] 57.1% | viability, T/C [17] 74.3% | viability, T/C [18] 77.5% | viability, T/C [45] 74.3% | viability, T/C [46] 76.8% | viability, T/C [47] 77.2% | viability, T/C [48] 57.8% | viability, T/C [23] 71.5% | viability, T/C [24] 69.8% | viability, T/C [49] 68.3% | viability, T/C [50] 65.9% | viability, T/C [51] 69.5% | viability, T/C [52] 57.6% | viability, T/C [29] 68.4% | viability, T/C [30] 68.8% | viability, T/C [53] 68.2% | viability, T/C [54] 68.7% | viability, T/C [55] 66.4% | viability, T/C [56] 51.4% | viability, T/C [35] 62.1% | viability, T/C [36] 62.5% | viability, T/C [57] 63.2% | viability, T/C [58] 66.4% | viability, T/C [59] 64.1% | viability, T/C [60] 49.9%
